According to paper PMC9863266, “Preclinical Studies and Drug Combination of Low-Cost Molecules for Chagas Disease” (Pharmaceuticals, 2022):

What was measured:
[1] = target: triosephosphate isomerase recombinant enzyme of T. cruzi (TcTIM); conditions: cited from earlier work
[2] = tested on: trypomastigote form of T. cruzi (strain Y); experiment: Trypanosomicidal activity in trypomastigotes; type: cell-based; conditions: Trypanosoma cruzi, 24 h, 4 °C, infected mouse blood
Method: The experiment was performed on infected, three-month-old, Balb/c mice. Seven days post-infection, when in a parasitemia peak (>1.0 × 10^6 parasites /mL), the blood of the living (anesthetized) mouse was extracted from the aorta or eye (1 mL per mouse), and citrate was used as an anticoagulant, then seeded in a 96-well plate with a final volume of 100 μL (90 μL of blood + 10 μL from a stock solution of the compound containing 10% DMSO). It was left at 4 °C, 24 h, then 5 μL of each sample was used to count trypomastigotes using a 40x optical microscope (MO) (50-field method). The plate fill was performed by homogenizing the well before filling each well (very slowly), and it was performed in triplicate or quadruplicate to obtain the IC50 values of each compound.

[3] = tested on: epimastigote form of T. cruzi, Tulahuen 2 strain; experiment: Viability by flow cytometry, CA-AM/IP labeling; type: cell-based; conditions: 20 × IC50
Method: Additionally, we evaluated the viability of treated parasites by flow cytometry analysis after incubation with methylated acetoxycalcein (CA-AM) and propidium iodide (IP). […] Since the methodology used to determine the IC50 is based on 5 days of incubation, doses 20 times higher were used to analyze cell viability in shorter times. Similarly, these compounds’ concentrations were used to determine the death mechanism involved at the aforementioned times.
Viability studies of parasites by flow cytometry: The feasibility studies were carried out by evaluating the esterase activity of the parasites using Acetoxymethylated Calcein (CA-AM) and IP (Thermo Fisher Scientific). […] Fluorescence intensity for 10,000 events was acquired from two independent experiments and data were analyzed using BD CSampler software (BD Bioscience).

[4] = Stability with microsomal and cytosolic fractions of rat hepatocytes; type: in vitro ADME
Method: The qualitative analysis of the in vitro metabolization by the rat hepatocyte microsomal (MF) and cytosolic (CF) fractions of compounds 793, 1019, and 1018 was performed using chromatographic techniques (reverse phase high performance liquid chromatography and thin-layer chromatography). For this, the metabolization was monitored at different times (0, 30, 60 min and 4 h). In both MF and CF of hepatocytes treated with compounds 793 and 1019, it was observed that after one hour, more than 50% (t1/2 < 60 min) of the compounds were metabolized to more hydrophilic compounds. For these compounds, it was observed the appearance of new products of metabolization over time. […] Regarding the structure and metabolism, the heterocycles (thienyl vs. furyl) could be responsible for these different stabilities: the furyl ring would metabolize to an open cycle version, making this system more labile in front of the hepatic metabolization.
For the determination of the stability in the different fractions, cytosolic and microsomal, rat hepatocytes protein fractions were purchased by Sigma® and used according to the previously reported protocol. […] The final concentration of the molecules in the aqueous medium was […] and prepared from stock in DMSO of 40 mM. The solutions were homogenized and incubated at 37 °C for 10 min, 30 min, 1 h, 2 h, 3 h, and 4 h (by TLC). Incubation at 37 °C was performed in a reaction volume of 1 mL containing 2.5 µL of 30 mM magnesium chloride (MgCl2); 2.5 µL of 40 mM nicotinamide […] dinucleotide phosphate (NADP^+); 5 µL of 350 mM glucose 6-phosphate (Glu6P); 5 µL of glucose 6-phosphate dehydrogenase (Glu6PD) 50 U/mL, 5 µL of the stock of 40 mM compounds and the volume of the phosphate buffer (pH = 7) was defined so that cytosolic (CF) and microsomal (MF) fraction present a final protein concentration of 0.1 mg/mL. After that, the stability of compounds 793, 1018, and 1019 in the CF and MF of rat hepatocytes was evaluated by HPLC at different times: 0, 30, and 60 min. […]

[5] = tested on: epimastigote form of T. cruzi, Tulahuen 2 strain; experiment: Mechanism of death by flow cytometry, AV/IP labeling; type: cell-based; conditions: 20 × IC50
Method: Parasites were immediately analyzed on an Accuri C6 flow cytometer (BD Bioscience, Franklin Lakes, New Jersey, U.S.). […] Ten thousand events were analyzed for each of the two independent experiments. Data were analyzed using BD CSampler software (BD Bioscience). Untreated parasites were used as a control. For the positive control of apoptosis and necrosis, the parasites were treated with hydrogen peroxide (H2O2) 50 µM and 100 µM for 2.5 h, respectively. These single-spot controls were used to calculate color compensation for flow cytometry.

T. cruzi epimastigotes = conditions: read-out: In vitro anti-T. cruzi activity (multiple strains) (IC50); cited from earlier work

For O=C(/C=C/C=C/c1ccco1)/C=C/C=C/c1ccco1 [Compound 793], the IC50 [1] is listed as 3 µM, the IC50 [2] is listed as 25 ± 5 µM and the “CA-AM/IP labeling Q1-UR (CA-AM+/IP+ double-labeled parasites)” value ([3]; 6 h) is listed as 82%. The “CA-AM/IP labeling Q1-UR (CA-AM+/IP+ double-labeled parasites)” value ([3]; 24 h) was 98%, the “In vitro metabolic stability (qualitative)” value ([4]; MF and CF of rat hepatocytes, up to 4 h) was “short half-life” and the “Compound metabolized to more hydrophilic compounds” value ([4]; after one hour, both MF and CF) was “more than 50%”. For the same compound, the half-life at 400 µM ([4]; pH 7, both MF and CF of rat hepatocytes) was < 1 h, the “AV/IP labeling Q1-UR (double AV+/IP+ labeling)” value ([5]; 6 h) was 74% and the “AV/IP labeling Q1-UR (double AV+/IP+ labeling)” value ([5]; 24 h) was 84%. The IC50 (T. cruzi epimastigotes) was 5 µM.
